In patent US4994485A, “Thio compounds having fungicidal activity” (Duphar International Research B.V., priority 1986, dated 1991):

How the values were obtained:
Format in all cases: cell-based
Pythium splendens = assay: In vitro test on activity against Pythium splendens; conditions: Globisporangium splendens, read-out: growth inhibition of the fungus
Pyrenophora graminea = assay: In vitro test on activity against Pyrenophora graminea; conditions: 48 hours, 20° C., read-out: % growth inhibition of the fungus
Procedure: In vitro test on activity against Pyrenophora graminea.
(§1) The compound to be tested is processed in a culture medium consisting of 1% by weight of glucose, 0.2% by weight of a yeast extract (marmite), 0.5% by weight of a protein (pepton), 2.5% by weight of agar-agar, and 95.8% by weight of water, in petri dishes in concentrations of 3 and 10 ppm. The petri dishes are inoculated with the plant-pathogenic fungus Pyrenophora graminea and then kept at a temperature of 20° C. After 48 hours the growth-inhibiting activity of the compounds is determined visually. For comparison, the known substance (b) (see EXAMPLE XV) is also tested.

Fusarium culmorum = assay: In vitro test on activity against Fusarium culmorum; conditions: read-out: growth inhibition of the fungus
Leptosphaeria nodorum = assay: In vitro test on activity against Leptosphaeria nodorum; conditions: Parastagonospora nodorum, read-out: growth inhibition of the fungus
Procedure: as §1
Compounds according to the invention are tested on i Leptosphaeria nodorum in the same manner as described in EXAMPLE XIX.

Compound	inhibition at 10 ppm (Pythium splendens) [%]	inhibition at 10 ppm (Pyrenophora graminea) [%]	inhibition at 30 ppm (Fusarium culmorum) [%]	inhibition at 30 ppm (Leptosphaeria nodorum) [%]	inhibition at 3 ppm (Pyrenophora graminea; 3 ppm) [%]
CC[S+]([O-])c1sc(C(=O)c2ccc(Cl)cc2)c(N)c1C#N (stereo not shown) [(66), 2 ethylsulphinyl-3-cyano-4-amino-5-(4-chlorobenzoyl)thiophene]	≥ 95	84			
CCCC[S+]([O-])c1sc(C#N)c(OC)c1C#N (stereo not shown) [(41), 2-n-butylsulphinyl-3,5-dicyano 4-methoxythiophene]	≥ 95		≥ 75	≥ 85	
N#Cc1cc(C#N)c(S(=O)(=O)c2ccccc2)s1 [(45), 2-phenylsulphonyl-3,5-dicyanothiophene]	≥ 95		≥ 75	≥ 85	
CC[S+]([O-])c1sc(C(C)=O)c(-c2ccccc2)c1C#N (stereo not shown) [(87), 2-ethylsulphinyl-3-cyano-4-phenyl-5-acetylthiophene]			≥ 75	≥ 85	
CC(=O)c1sc([S+](C)[O-])c(C#N)c1-c1ccc(Cl)cc1 (stereo not shown) [(6), 2-methylsulphinyl 3-cyano-4-(4-chlorophenyl)-5-acetylthiophene]	≥ 95	77			54
N#Cc1sc([S+]([O-])Cc2ccccc2)c(C#N)c1Cl (stereo not shown) [(78), 2-benzylsulphinyl-3,5-dicyano-4-chlorothiophene]	≥ 95	86	≥ 75		
COc1c(C(=O)c2ccccc2)sc([S+](C)[O-])c1C#N (stereo not shown) [(74), 2-methylsulphinyl-3-cyano-4-methoxy-5-benzoylthiophene]	≥ 95		≥ 75	≥ 85	
CCC[S+]([O-])c1sc(C(=O)c2ccccc2)c(OC)c1C#N (stereo not shown) [(75), 2-n-propylsulphinyl-3-cyano-4-methoxy-5-benzoylthiophene]			≥ 75	≥ 85	
CC[S+]([O-])c1sc(C#N)c(-c2ccccc2)c1C#N (stereo not shown) [(71), 2-ethylsulphinyl-3,5-dicyano-4-phenylthiophene]			≥ 75	≥ 85	
CCC[S+]([O-])c1sc(C(=O)c2ccccc2)c(N)c1C#N (stereo not shown) [(67), 2-n-propylsulphinyl-3-cyano-4-amino-5-benzoylthiophene]	≥ 95		≥ 75	≥ 85	
CCCC[S+]([O-])c1sc(C(=O)c2ccccc2)c(N)c1C#N (stereo not shown) [(88), 2-n-butylsulphinyl-3-cyano-4-amino-5-benzoylthiophene]			≥ 75	≥ 85	
CCCC[S+]([O-])c1sc(C(C)=O)c(N)c1C#N (stereo not shown) [(58), 2-n-butylsulphinyl-3 cyano-4-amino-5-acetylthiophene]	≥ 95		≥ 75	≥ 85	
CCC[S+]([O-])c1sc(C#N)cc1C#N (stereo not shown) [(40), 2-n-propylsulphinyl 3,5-dicyanothiophene]	≥ 95		≥ 75	≥ 85	
N#Cc1cc(C#N)c([S+]([O-])c2ccccc2)s1 (stereo not shown) [(32), 2-phenylsulphinyl-3,5-dicyanothiophene]	≥ 95		≥ 75	≥ 85	
CC[S+]([O-])c1sc(C(=O)c2ccccc2)c(Cl)c1C#N (stereo not shown) [(92), 2-ethylsulphinyl-3-cyano-4-chloro-5-benzoylthiophene]			≥ 75	≥ 85	
CCC[S+]([O-])c1sc(C(=O)c2ccc(Cl)cc2)cc1C#N (stereo not shown) [(73), 2-n-propylsulphinyl-3-cyano-5-(4-chlorobenzolyl)thiophene]			≥ 75	≥ 85	
CCCCS(=O)(=O)c1sc(C#N)c(Br)c1C#N [(89), 2-n-butylsulphonyl 3,5-dicyano-4-bromothiophene]	≥ 95		≥ 75	≥ 85	
CC[S+]([O-])c1sc(C(C)=O)c(OC)c1C#N (stereo not shown) [(23), 2-ethylsulphinyl-3-cyano-4-methoxy-5-acetylthiophene]			≥ 75	≥ 85	
